Data published in PubChem BioAssay (NCI).
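Exposure lasted 48 hours, with cells grown in 96-well plates and compounds tested at five concentrations. At the GI50, growth is halved. TGI denotes the concentration required for complete inhibition of growth.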

Tests used:
Assay in all cases: DTP human tumour cell line panel, 48 h
786-0 renal = system: 786-0 renal
A498 renal = system: A498 renal
A549 NSCLC = system: A549 NSCLC
ACHN renal = system: ACHN renal
BT-549 breast = system: BT-549 breast
CAKI-1 renal = system: CAKI-1 renal
CCRF-CEM leukemia = system: CCRF-CEM leukemia
COLO 205 colon = system: COLO 205 colon
DU-145 prostate = system: DU-145 prostate
EKVX NSCLC = system: EKVX NSCLC
HCC-2998 colon = system: HCC-2998 colon
HCT-116 colon = system: HCT-116 colon
HCT-15 colon = system: HCT-15 colon
HL-60(TB) leukemia = system: HL-60(TB) leukemia
HOP-62 NSCLC = system: HOP-62 NSCLC
HOP-92 NSCLC = system: HOP-92 NSCLC
HS 578T breast = system: HS 578T breast
HT29 colon = system: HT29 colon
IGROV1 ovarian = system: IGROV1 ovarian
K-562 leukemia = system: K-562 leukemia
KM12 colon = system: KM12 colon
LOX IMVI melanoma = system: LOX IMVI melanoma
M14 melanoma = system: M14 melanoma
MALME-3M melanoma = system: MALME-3M melanoma
MCF7 breast = system: MCF7 breast
MDA-MB-231 breast = system: MDA-MB-231 breast
MDA-MB-435 = system: MDA-MB-435
MOLT-4 leukemia = system: MOLT-4 leukemia
NCI-H226 lung = system: NCI-H226 lung
NCI-H23 lung = system: NCI-H23 lung
NCI-H460 lung = system: NCI-H460 lung
NCI-H522 lung = system: NCI-H522 lung
NCI/ADR-RES ovarian = system: NCI/ADR-RES ovarian
OVCAR-3 ovarian = system: OVCAR-3 ovarian
OVCAR-4 ovarian = system: OVCAR-4 ovarian
OVCAR-5 ovarian = system: OVCAR-5 ovarian
OVCAR-8 ovarian = system: OVCAR-8 ovarian
PC-3 prostate = system: PC-3 prostate
RPMI-8226 leukemia = system: RPMI-8226 leukemia
RXF 393 renal = system: RXF 393 renal
SF-268 CNS = system: SF-268 CNS
SF-295 CNS = system: SF-295 CNS
SF-539 CNS = system: SF-539 CNS
SK-MEL-2 melanoma = system: SK-MEL-2 melanoma
SK-MEL-28 melanoma = system: SK-MEL-28 melanoma
SK-MEL-5 melanoma = system: SK-MEL-5 melanoma
SK-OV-3 ovarian = system: SK-OV-3 ovarian
SNB-19 CNS = system: SNB-19 CNS
SNB-75 CNS = system: SNB-75 CNS
SR leukemia = system: SR leukemia
SW-620 colon = system: SW-620 colon
T-47D breast = system: T-47D breast
TK-10 renal = system: TK-10 renal
U251 CNS = system: U251 CNS
UACC-257 melanoma = system: UACC-257 melanoma
UACC-62 melanoma = system: UACC-62 melanoma
UO-31 renal = system: UO-31 renal
SN12C renal = system: SN12C renal

## Fc1ccc2[nH]cc(SSc3c[nH]c4ccc(F)cc34)c2c1
786-0 renal
  GI50: 6.8 µM
  TGI: 24.8 µM
A498 renal
  GI50: 3.61 µM
  TGI: 14.4 µM
A549 NSCLC
  GI50: 4.98 µM
  TGI: 87.7 µM
ACHN renal
  GI50: 4.34 µM
  TGI: 34.3 µM
BT-549 breast
  GI50: 4.94 µM
  TGI: 24.4 µM
CAKI-1 renal
  GI50: 3.52 µM
  TGI: 21.7 µM
CCRF-CEM leukemia
  GI50: 2.54 µM
  TGI: 8.56 µM
COLO 205 colon
  GI50: 3.83 µM
  TGI: 17.4 µM
DU-145 prostate
  GI50: 11.6 µM
  TGI: 31.1 µM
EKVX NSCLC
  GI50: 3.03 µM
  TGI: 15.7 µM
HCC-2998 colon
  GI50: 6.34 µM
  TGI: 23.3 µM
HCT-116 colon
  GI50: 3.98 µM
  TGI: > 100 µM
HCT-15 colon
  GI50: 2.1 µM
  TGI: 22 µM
HL-60(TB) leukemia
  GI50: 1.83 µM
  TGI: 6.57 µM
HOP-62 NSCLC
  GI50: 6.33 µM
  TGI: 57.2 µM
HOP-92 NSCLC
  GI50: 1.95 µM
  TGI: 7.92 µM
HS 578T breast
  GI50: 4.22 µM
  TGI: 31.1 µM
HT29 colon
  GI50: 5.46 µM
  TGI: 23.9 µM
IGROV1 ovarian
  GI50: 5.35 µM
  TGI: 20.8 µM
K-562 leukemia
  GI50: 3.89 µM
  TGI: > 100 µM
KM12 colon
  GI50: 3.76 µM
  TGI: 16.1 µM
LOX IMVI melanoma
  GI50: 3.18 µM
  TGI: 17.4 µM
M14 melanoma
  GI50: 5.29 µM
  TGI: > 100 µM
MALME-3M melanoma
  GI50: 14.6 µM
  TGI: 34 µM
MCF7 breast
  GI50: 3.87 µM
  TGI: 20 µM
MDA-MB-231 breast
  GI50: 4.17 µM
  TGI: 26.8 µM
MDA-MB-435
  GI50: 4.62 µM
  TGI: 21.5 µM
MOLT-4 leukemia
  GI50: 2.71 µM
  TGI: 33.4 µM
NCI-H226 lung
  GI50: 2.7 µM
  TGI: 7.86 µM
NCI-H23 lung
  GI50: 16.7 µM
  TGI: 77.5 µM
NCI-H460 lung
  GI50: 4.44 µM
  TGI: 19.9 µM
NCI-H522 lung
  GI50: 2.48 µM
  TGI: 7.67 µM
NCI/ADR-RES ovarian
  GI50: 7.1 µM
  TGI: > 100 µM
OVCAR-3 ovarian
  GI50: 4.52 µM
  TGI: 18.3 µM
OVCAR-4 ovarian
  GI50: 3.87 µM
  TGI: 18.2 µM
OVCAR-5 ovarian
  GI50: 12.7 µM
  TGI: 39.9 µM
OVCAR-8 ovarian
  GI50: 5.73 µM
  TGI: 42.8 µM
PC-3 prostate
  GI50: 0.861 µM
  TGI: 12 µM
RPMI-8226 leukemia
  GI50: 1.5 µM
  TGI: 6.46 µM
RXF 393 renal
  GI50: 0.659 µM
  TGI: 17 µM
SF-268 CNS
  GI50: 5.07 µM
  TGI: 21.9 µM
SF-295 CNS
  GI50: 3.04 µM
  TGI: 11.2 µM
SF-539 CNS
  GI50: 3.77 µM
  TGI: 14.7 µM
SK-MEL-2 melanoma
  GI50: 3.62 µM
  TGI: 17 µM
SK-MEL-28 melanoma
  GI50: 5.71 µM
  TGI: 20.3 µM
SK-MEL-5 melanoma
  GI50: 5.13 µM
  TGI: 18.3 µM
SK-OV-3 ovarian
  GI50: 6.13 µM
  TGI: 22.8 µM
SNB-19 CNS
  GI50: 5.21 µM
  TGI: 22.1 µM
SNB-75 CNS
  GI50: 3.12 µM
  TGI: 15.9 µM
SR leukemia
  GI50: 2.29 µM
  TGI: 11.3 µM
SW-620 colon
  GI50: 8.22 µM
  TGI: 26 µM
T-47D breast
  GI50: 2.54 µM
  TGI: 20.5 µM
TK-10 renal
  GI50: 10.1 µM
  TGI: 24.6 µM
U251 CNS
  GI50: 3.82 µM
  TGI: 28 µM
UACC-257 melanoma
  GI50: 8.51 µM
  TGI: 25.3 µM
UACC-62 melanoma
  GI50: 2.83 µM
  TGI: 13.8 µM
UO-31 renal
  GI50: 4.83 µM
  TGI: 52.3 µM

## O=C1NN(c2ccccc2)C(=O)/C1=C/c1ccc(Br)o1
786-0 renal
  GI50: 19.8 µM
  TGI: 53.2 µM
A498 renal
  GI50: 23 µM
  TGI: 53.9 µM
A549 NSCLC
  GI50: 12 µM
  TGI: 44.4 µM
ACHN renal
  GI50: 13.3 µM
  TGI: > 49.4 µM
BT-549 breast
  TGI: 17.2 µM
CAKI-1 renal
  GI50: 5.8 µM
  TGI: 20.8 µM
CCRF-CEM leukemia
  GI50: 5.23 µM
  TGI: 19.8 µM
COLO 205 colon
  GI50: 3.75 µM
  TGI: 11.2 µM
DU-145 prostate
  GI50: 1.45 µM
  TGI: 11.2 µM
EKVX NSCLC
  GI50: 1.54 µM
  TGI: 36.6 µM
HCT-116 colon
  GI50: 11.4 µM
  TGI: 25.8 µM
HCT-15 colon
  GI50: 10.1 µM
  TGI: 24.7 µM
HL-60(TB) leukemia
  GI50: 10.5 µM
  TGI: > 81.1 µM
HOP-62 NSCLC
  TGI: 21.4 µM
HOP-92 NSCLC
  TGI: 3.33 µM
HS 578T breast
  GI50: 1.49 µM
  TGI: 3.11 µM
HT29 colon
  GI50: 4.21 µM
  TGI: 22.1 µM
IGROV1 ovarian
  GI50: 5.19 µM
  TGI: 35 µM
K-562 leukemia
  GI50: 14.1 µM
  TGI: > 77.7 µM
KM12 colon
  GI50: 9.71 µM
  TGI: 24 µM
LOX IMVI melanoma
  GI50: 5.42 µM
  TGI: 22.4 µM
M14 melanoma
  TGI: 16.2 µM
MALME-3M melanoma
  TGI: 0.972 µM
MCF7 breast
  GI50: 3.54 µM
  TGI: 18.9 µM
MDA-MB-231 breast
  TGI: 20.9 µM
MDA-MB-435
  GI50: 6.65 µM
  TGI: 23.8 µM
MOLT-4 leukemia
  GI50: 6.06 µM
  TGI: 24.6 µM
NCI-H226 lung
  GI50: 13.5 µM
  TGI: 34.7 µM
NCI-H23 lung
  GI50: 15.6 µM
  TGI: 36.1 µM
NCI-H460 lung
  GI50: 15.1 µM
  TGI: 36 µM
NCI-H522 lung
  GI50: 7.92 µM
  TGI: 36.8 µM
NCI/ADR-RES ovarian
  GI50: 15.8 µM
  TGI: 54.8 µM
OVCAR-3 ovarian
  GI50: 1.07 µM
  TGI: 13.2 µM
OVCAR-4 ovarian
  GI50: 15.3 µM
  TGI: 29.5 µM
OVCAR-5 ovarian
  GI50: 14.2 µM
  TGI: 30.6 µM
OVCAR-8 ovarian
  GI50: 11 µM
  TGI: 41.6 µM
PC-3 prostate
  GI50: 6.9 µM
  TGI: 26.3 µM
RPMI-8226 leukemia
  GI50: 0.777 µM
  TGI: 10.9 µM
RXF 393 renal
  GI50: 1.02 µM
  TGI: 2.04 µM
SF-268 CNS
  GI50: 14 µM
  TGI: 47.7 µM
SF-295 CNS
  TGI: 2.56 µM
SF-539 CNS
  GI50: 20.5 µM
  TGI: 41.9 µM
SK-MEL-2 melanoma
  GI50: 15.8 µM
  TGI: 44.7 µM
SK-MEL-28 melanoma
  GI50: 7.03 µM
  TGI: 29.8 µM
SK-MEL-5 melanoma
  GI50: 1.26 µM
  TGI: 2.05 µM
SK-OV-3 ovarian
  GI50: 26.7 µM
  TGI: > 61.4 µM
SN12C renal
  GI50: 0.951 µM
  TGI: 21.3 µM
SNB-19 CNS
  GI50: 17.5 µM
  TGI: 41.9 µM
SNB-75 CNS
  GI50: 24.3 µM
  TGI: 58.6 µM
SR leukemia
  GI50: 2.62 µM
  TGI: 8.3 µM
SW-620 colon
  GI50: 4.85 µM
  TGI: 24.5 µM
T-47D breast
  GI50: 18.9 µM
  TGI: 52.3 µM
TK-10 renal
  GI50: 13.2 µM
  TGI: 33.7 µM
U251 CNS
  GI50: 1.57 µM
  TGI: 19.8 µM
UACC-257 melanoma
  GI50: 15.4 µM
  TGI: 37.3 µM
UACC-62 melanoma
  GI50: 11.8 µM
  TGI: 24.3 µM
UO-31 renal
  GI50: 8.8 µM
  TGI: > 64.1 µM
